From publication PMC8533202, “Design of Inhibitors of the Intrinsically Disordered Protein NUPR1: Balance between Drug Affinity and Target Function” (Biomolecules, 2021)
“And” between values parts separate entries of the source, which are not always exact repeats. Identical values can stand only once.

Assays:
NUPR1 = target: T1, NUPR1 (Homo sapiens, UniProt O60356); assay: Isothermal titration calorimetry (ITC) binding to NUPR1; details: 25 °C; for N (stoichiometry) / ΔG / ΔH / −TΔS: pH 7.0; for Ka / Kd: sodium phosphate 20 mM, pH 7.0, 2% DMSO; for Kd: read-out: Kd (=1/Ka)
T1 construct: made in house
T1 sequence (O60356 1-82): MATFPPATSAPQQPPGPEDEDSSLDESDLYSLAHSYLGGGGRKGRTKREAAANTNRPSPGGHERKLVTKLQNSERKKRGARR
Method: The binding of the ZZW-115-derived compounds to NUPR1 was determined as described by using a high sensitivity isothermal titration calorimeter Auto-iTC200 (MicroCal, Malvern-Panalytical, Malvern, UK). Protein samples and solutions were properly degassed. Experiments were performed with freshly prepared protein solutions at 25 °C. A solution of NUPR1 (20 μM, in sodium phosphate 20 mM, pH 7.0, 2% DMSO) in the calorimetric cell was titrated with a solution of each compound (200 μM, in sodium phosphate 20 mM pH 7.0, 2% DMSO). The inhibitors were dissolved in the same buffer used for the protein. A standard protocol was employed: 19 titrant injections with 2 μL compound solution were programmed with a time spacing of 150 s, a stirring speed of 750 rpm, and a reference power of 10 μcal/s. The heat evolved after each ligand injection was calculated from the integral of the calorimetric signal. The heat due to the binding reaction was obtained as the difference between the reaction heat and the corresponding heat of injection, the latter estimated as a constant value throughout the experiment, and included as an adjustable parameter in the analysis. Control experiments (with the compounds injected into the buffer) were performed under the same experimental conditions.
The association constant (Ka), the enthalpy change (ΔH) and the stoichiometry (n) of the binding reaction were obtained through nonlinear regression analysis of experimental data to a model assuming a single ligand binding site for the protein. Experiments were performed in replicate and data were analyzed using in-house-developed software implemented in Origin 7 (OriginLab).
The interaction between ZZW-115-Derived compounds and NUPR1 was studied by using ITC, the gold-standard technique in binding-affinity determination, to test our theoretical prediction. […] From the thermogram (thermal power as a function of time), the binding isotherm (ligand-normalized heat as a function of the molar ratio) was obtained through integration of the individual heat effect associated with injection of each ligand solution (Figure 3). We used a nonlinear least-squares regression analysis employing a model that considered a single binding site in NUPR1 to estimate binding parameters such as the dissociation constant and the binding enthalpy.

PDAC001T cells = assay: Cell viability assay (PrestoBlue); type: cell-based; details: Homo sapiens; PDAC001T (basal subtype), 72 h
Source text: (§1) Primary pancreatic cancer cells PDAC001T, PDAC012T, PDAC021T, PDAC081T, PDAC082T, PDAC087T, PDAC088T, PDAC089T, and PDAC115T were obtained from the PaCaOmics clinical trial registered at www.clinicaltrials.gov (accessed on 2 October 2021) with registration number NCT01692873. We included PDAC samples from both echoendoscopic ultrasound-guided fine-needle (EUS-FNA) biopsies for patients with unresectable tumors and from surgical specimens for patients undergoing surgery. The tumor samples of these patients were used to generate patient-derived xenograft in nude mice as previously reported. Xenografts obtained from mice were split into several small pieces and used for cell culture in a biosafety chamber: after fine mincing, they were treated with collagenase type V (ref C9263; Sigma-Aldrich, St. Louis, MO, USA) and trypsin/EDTA (ref 25200-056; Gibco, Life Technologies, Grand Island, NY, USA) and were suspended in Dulbecco’s modified Eagle’s medium supplemented with 1% w/w penicillin/streptomycin (Gibco, Life Technologies, Paisley, UK) and 10% fetal bovine serum (Lonza Inc., Walkersville, MD, USA). After centrifugation, cells were resuspended in serum-free ductal media adapted from Schreiber et al. at 37 °C in a 5% CO2 incubator. Amplified cells were stored in liquid nitrogen as previously reported. Cells were weaned from antibiotics for ≥48 h before testing.
(§2) Cell viability was evaluated in ten pancreatic cancer cell lines, including MiaPaCa-2, and nine primary pancreatic cancer-derived cell lines: PDAC001T, PDAC012T, PDAC021T, PDAC081T, PDAC082T, PDAC087T, PDAC088T, PDAC089T, and PDAC115T. MiaPaCa-2 cells were obtained from ATCC (Manassas, VA, USA) and maintained in DMEM (Invitrogen, Cergy-Pontoise, France), supplemented with 10% […] at 37 °C with 5% CO2. The primary pancreatic cancer-derived cells were cultured in serum free ductal media (SFDM) following a procedure adapted from those previously described, without antibiotic, and incubated at 37 °C in a 5% CO2 incubator. Cells were plated in 96-well plates (5000 cells/well) overnight. Then, the media were supplemented with the compounds to be tested at 0–100 µM concentration, and the samples were incubated for another additional 72 h before performing the measurement. Cell viability was estimated after addition of PrestoBlue™ reagent (Life Technologies, Paris, France) for 3 h according to the PrestoBlue™ cell viability reagent protocol provided by the supplier. Cell viability was normalized when comparing to untreated cell rates. Experiments were performed in triplicate and each set was repeated three times, with similar results.

PDAC012T cells = assay: Cell viability assay (PrestoBlue); type: cell-based; details: Homo sapiens; PDAC012T (classical subtype), 72 h
Source text: as §1, §2

PDAC021T cells = assay: Cell viability assay (PrestoBlue); type: cell-based; details: Homo sapiens; PDAC021T (basal subtype), 72 h
Source text: as §1, §2

PDAC081T cells = assay: Cell viability assay (PrestoBlue); type: cell-based; details: Homo sapiens; PDAC081T (classical subtype), 72 h
Source text: as §1, §2

PDAC082T cells = assay: Cell viability assay (PrestoBlue); type: cell-based; details: Homo sapiens; PDAC082T (classical subtype), 72 h
Source text: as §1, §2

PDAC087T cells = assay: Cell viability assay (PrestoBlue); type: cell-based; details: Homo sapiens; PDAC087T (basal subtype), 72 h
Source text: as §1, §2

PDAC088T cells = assay: Cell viability assay (PrestoBlue); type: cell-based; details: Homo sapiens; PDAC088T (classical subtype), 72 h
Source text: as §1, §2

PDAC089T cells = assay: Cell viability assay (PrestoBlue); type: cell-based; details: Homo sapiens; PDAC089T (derived from a liver metastasis), 72 h
Source text: as §1, §2

PDAC115T cells = assay: Cell viability assay (PrestoBlue); type: cell-based; details: Homo sapiens; PDAC115T (basal subtype), 72 h
Source text: as §1, §2

MiaPaCa-2 cells = assay: Cell viability assay (PrestoBlue); type: cell-based, human; details: MiaPaCa-2, 72 h
Method: as §2

[1] = tested on: NUPR1 nuclear translocation; assay: NUPR1 nuclear translocation, immunofluorescence in MiaPaCa-2 cells; type: cell-based, human; details: 3 µM, 6 h (Figure 4)
Method: Cells (100000 cells/well) were seeded in 12-well plates on coverslips overnight and then treated with 3 μM concentration of each compound for […]. After fixation with 4% paraformaldehyde (Sigma-Aldrich, St. Quentin, Fallavier, France) for 15 min, cells were washed twice with 1x PBS and incubated 1 h with the following antibodies at 1:200 dilution: rabbit anti-NUPR1 primary antibody (homemade) or γH2AX primary antibody (ab26350, Abcam, Paris, France). After the washing steps, samples were incubated 1 h with secondary antibodies at 1:500 dilution (goat anti-rabbit Alexa Fluor 488, A27034, or goat anti-mouse Alexa Fluor 488, A28175, both from Thermo Fisher Scientific, Franklin, MA, USA). ProLong™ Gold Antifade Mountant with DAPI (P36931, Thermo Fisher Scientific) was used to stain the nucleus and seal the samples. Image acquisition of Alexa Fluor 488-derived fluorescence and DAPI staining was detected with an LSM 880 controlled by Zeiss Zen Black 63x lens. Co-localization analysis and measurements in both channels were performed by using the ImageJ Coloc 2 plugin (version 3.0.5).
MiaPaCa-2 cells were treated with representative ZZW-115-derived compounds (3 µM) for 6 h. […] DAPI staining was used to detect cell nuclei, and it was combined with the Alexa 488 fluorescence in the merged panel. […]

Row | SMILES | N (stoichiometry) (NUPR1) | ΔG (NUPR1) [kcal mol^–1] | ΔH (NUPR1) [kcal mol^–1] | −TΔS (NUPR1) [kcal mol^–1] | Ka (NUPR1) [M^–1 × 10^5] | Kd (NUPR1) | IC50 (PDAC001T cells) [µM] | IC50 (PDAC012T cells) [µM] | IC50 (PDAC021T cells) [µM] | IC50 (PDAC081T cells) [µM] | IC50 (PDAC082T cells) [µM] | IC50 (PDAC087T cells) [µM] | IC50 (PDAC088T cells) [µM] | IC50 (PDAC089T cells) [µM] | IC50 (PDAC115T cells) [µM] | IC50 (MiaPaCa-2 cells; Homo sapiens, MIA PaCa-2, 72 h) [µM] | IC50 (MiaPaCa-2 cells) [µM] | ability to hamper NUPR1 nuclear translocation [1]
1 | CCN(CC)CCN1CCN(CCCN2c3ccccc3Sc3ccc(C(F)(F)F)cc32)CC1 [ZZW-129] | 1.2 ± 0.1 | −7.5 ± 0.1 | −0.7 ± 0.4 | −6.8 ± 0.4 | 3.1 ± 0.3 | 3.2 ± 0.3 µM | 1.94 | 2.77 | 3.41 | 0.86 | 3.56 | 4.28 | 7.28 | 7.9 | 2.46 | 0.33 | – | –
2 | FC(F)(F)c1ccc2c(c1)N(CCCN1CCN(CCN3CCCC3)CC1)c1ccccc1S2 [ZZW-130] | 1.4 ± 0.1 | −7.9 ± 0.1 | 0.3 ± 0.3 | −8.2 ± 0.3 | 6.4 ± 0.4 | 1.6 ± 0.1 µM | 2.45 | 4.18 | 3.81 | 1.12 | 4.33 | 4.95 | 6.75 | 6.03 | 2.91 | 0.35 | – | –
3 | FC(F)(F)c1ccc2c(c1)N(CCCN1CCN(CCN3CCCCC3)CC1)c1ccccc1S2 [ZZW-131] | 0.8 ± 0.1 | −7.7 ± 0.1 | 0.5 ± 0.3 | −8.2 ± 0.3 | 4.7 ± 0.3 | 2.1 ± 0.1 µM | 3.98 | 5.25 | 6.47 | 0.97 | 6.49 | 4.43 | 8.11 | 10.6 | 5.75 | 0.3 | – | –
4 | FC(F)(F)c1ccc2c(c1)N(CCCN1CCN(CCN3CCOCC3)CC1)c1ccccc1S2 [ZZW-132] | 1.2 ± 0.1 | −7.9 ± 0.1 | 0.3 ± 0.3 | −8.2 ± 0.3 | 5.8 ± 0.4 | ~1.7 µM and 1.7 µM | 12.5 | 12.2 | 16.5 | 1.91 | 21.1 | 16.6 | 23.6 | 29.1 | 16.1 | ~1 | 1.04 | worst effect in hampering the nuclear translocation efficiency
5 | CCN(CC)CCCN1CCN(CCCN2c3ccccc3Sc3ccc(C(F)(F)F)cc32)CC1 [ZZW-143] | 1.2 ± 0.1 | −6.4 ± 0.1 | 0.8 ± 0.4 | −7.2 ± 0.4 | 0.5 ± 0.1 | 20 ± 4 µM | 2.31 | 2.18 | 2.57 | 0.97 | 3.55 | 2.22 | 5.94 | 6.12 | 2.5 | 0.29 | – | –
6 | FC(F)(F)c1ccc2c(c1)N(CCCN1CCN(CCCN3CCCC3)CC1)c1ccccc1S2 [ZZW-144] | 1.2 ± 0.1 | −6.7 ± 0.1 | 0.5 ± 0.5 | −7.2 ± 0.5 | 0.85 ± 0.8 | 12 ± 1 µM | 2.51 | 2.51 | 3.69 | 0.98 | 3.04 | 3.57 | 5.8 | 8.38 | 3.22 | 0.26 | – | –
7 | FC(F)(F)c1ccc2c(c1)N(CCCN1CCN(CCCN3CCCCC3)CC1)c1ccccc1S2 [ZZW-145] | 1.2 ± 0.1 | −6.7 ± 0.1 | 0.7 ± 0.5 | −7.4 ± 0.5 | 0.82 ± 0.9 | 11 ± 1 µM | 2.36 | 2.36 | 2.33 | 0.78 | 2.33 | 2.37 | 5 | 6.22 | 2.44 | 0.19 | – | –
8 | FC(F)(F)c1ccc2c(c1)N(CCCN1CCN(CCCN3CCOCC3)CC1)c1ccccc1S2 [ZZW-148] | 1.2 ± 0.1 | −6.8 ± 0.1 | 0.7 ± 0.5 | −7.5 ± 0.5 | 1.0 ± 0.1 | 9.6 ± 1 µM | 3.75 | 3.7 | 4.35 | 1.11 | 4.1 | 6.57 | 10.7 | 14.8 | 4.37 | 0.47 | – | –
